Molecules are shown by their SMILES. Where only a bound is given, the exact number is not on record here.

One test concerns ULK kinase substrate ATG13 (pS318-ATG13) in HCT-116 cells. Description: pATG13 levels of mutant KRas HCT-116 cells after treatment with ULK inhibitors in combination with trametinib (ELISA). The format is cell-based, human.
Details: not given
The procedure: pATG13 Levels of Mutant KRas HCT-116 Cells after Treatment with ULK Inhibitors in Combination with Trametinib
HCT-116 human colon cancer cells (10000 cells/well) were added to a 384-well tissue-culture treated plate in 50 μL of pre-warmed DMEM medium supplemented with 10% characterized fetal bovine serum (Invitrogen, Carlsbad, CA), 100 units/mL penicillin G, and 100 μg/mL streptomycin and allowed to grow overnight at 37° C., 5% CO2, and 95% humidity. The following day, 10 μL of media containing trametinib or DMSO as a control was added to wells. The final concentration of trametinib in wells was 250 nM. A dose response of a test compound (0.6 μL per well) was added. DMSO (0.6 μL) was added to control wells. The plate was briefly shaken to mix wells and then incubated at 37° C. overnight. The next day, the media was aspirated and cells were washed with Dulbecco's Phosphate Buffered Saline (Gibco). Cells were lysed using MPER lysis buffer (Pierce, Rockford, IL) containing Halt Phosphatase and Protease Inhibitors (Pierce, Rockford, IL) and Phosphatase inhibitor cocktail 2 (Sigma, St. Louis, MO) at 4° C. for 10 minutes with shaking.
(§1) Cellular levels of phospho-Serine 318 ATG13 (pATG13) were measured via an ELISA method. Total ATG13 Antibody (Cell Signaling Cat #13273) was used to coat the wells. The plate was incubated at 4° C. overnight and washed with ELISA wash buffer (Biolegend Cat #421601). The wells were then blocked with assay diluent (Biolegend Cat #421203) for 1 h at rt. Plate wells were washed with ELISA wash buffer. Cell lysate was added to wells and incubated at rt for 2 h. Plate wells were washed with ELISA wash buffer. Biotinylated pS318-ATG13 antibody (Rockland Immunochemicals Cat #600-401-C49) was diluted in assay diluent and added to each well and incubated at rt for 1 h. Plate wells were washed with ELISA wash buffer. Streptavidin linked to horseradish peroxidase (Thermo Fisher Cat #21140) was diluted in assay diluent and added to each well and incubated at rt for 1 h. Plate wells were washed with ELISA wash buffer. High sensitivity TMB substrate (Biolegend Cat #421101) was added to each well and incubated at rt for 20 minutes. The reaction was stopped with 2.0N sulfuric acid. The plate was analyzed at on a plate reader measuring absorbance at 450 nm and 540 nm (background). Signal was calculated by first subtracting the background absorbance at 540 nm from the absorbance at 450 nm for each well. Next, the background corrected absorbance at 450 nm from blank wells was subtracted from test wells. Data was compared to control wells to determine % ATG13 phosphorylation. GraphPad Prism was used to calculate IC50 values.
In general terms: ELISA stands for enzyme-linked immunosorbent assay.
On to `CC/C(Nc1cnn(C2CCN(C(C)C)CC2)c1)=C1/C(=O)Nc2ccc(C(=O)NCCOC(F)(F)F)cc21` [Example 82], for which the IC50 (as a rule, the concentration needed to halve the response being measured) is more than 600 nM.
As to `CC/C(Nc1cnn(C2CCN(C(C)C)CC2)c1)=C1/C(=O)Nc2ccc(C(=O)NC[C@H]3CCCO3)cc21` [Example 1, (R,Z)-3-(1-((1-(1-isopropylpiperidin-4-yl)-1H-pyrazol-4-yl)amino)propylidene)-2-oxo-N-((tetrahydrofuran-2-yl)methyl)indoline-5-carboxamide], the IC50 was not above 100 nM.
Take `CC/C(Nc1cnn(C)c1)=C1/C(=O)Nc2ccc(C(=O)NCC(F)(F)F)cc21` [Example 77]: the IC50 was not above 100 nM.
With `CC/C(Nc1ccc(N2CCN(C)CC2)cn1)=C1/C(=O)Nc2ccc(C(=O)NCC(F)(F)F)cc21` [Example 75], the IC50 is not above 100 nM.
Regarding `CC/C(Nc1cnn(C2CN(C)C2)c1)=C1/C(=O)Nc2ccc(C(=O)NCC(F)(F)F)cc21` [Example 86], the 50% inhibitory concentration (IC50) is not above 100 nM.

For a further test, the system named is ULK kinase substrate ATG13 (pS318-ATG13) in T24 cells. Description: pATG13 levels of mutant HRas T24 cells after treatment with ULK inhibitors in combination with trametinib (ELISA). The format is cell-based, human. As to conditions: in combination with trametinib 250 nM. On the procedure:
pATG13 Levels of Mutant HRas T24 Cells after Treatment with ULK Inhibitors in Combination with Trametinib
T24 human urinary bladder cancer cells (25000 cells/well) were added to a 96-well tissue-culture treated plate in 100 μL of pre-warmed DMEM medium supplemented with 10% characterized fetal bovine serum (Invitrogen, Carlsbad, CA), 100 units/mL penicillin G, and 100 μg/mL streptomycin and allowed to grow overnight at 37° C., 5% CO2, and 95% humidity. The following day, 100 μL of media containing trametinib or DMSO as a control was added to wells. The final concentration of trametinib in wells was 250 nM. A dose response of a test compound (0.5 μL per well) was added. DMSO (0.5 μL) was added to control wells. The plate was briefly shaken to mix wells and then incubated at 37° C. overnight. The next day, the media was aspirated and cells were washed with Dulbecco's Phosphate Buffered Saline (Gibco). Cells were lysed using MPER lysis buffer (Pierce, Rockford, IL) containing Halt Phosphatase and Protease Inhibitors (Pierce, Rockford, IL) and Phosphatase inhibitor cocktail 2 (Sigma, St. Louis, MO) at 4° C. for 10 min with shaking.
as §1, with “min.” for “minutes.”
`CC/C(Nc1cnn(C2CCN(C(C)C)CC2)c1)=C1/C(=O)Nc2ccc(C(=O)NC[C@H]3CCCO3)cc21` [Example 1, (R,Z)-3-(1-((1-(1-isopropylpiperidin-4-yl)-1H-pyrazol-4-yl)amino)propylidene)-2-oxo-N-((tetrahydrofuran-2-yl)methyl)indoline-5-carboxamide]: the IC50 is not above 100 nM.

These data come from patent US20240150368A1, “ULK INHIBITORS AND METHODS OF USE THEREOF” (Deciphera Pharmaceuticals, LLC, priority 2022, published 2024).
